Where two headings read alike, the source gives them in different places.

From patent US10988440B2, “FTO inhibitors” (National Institute of Biological Sciences, Beijing, priority 2015, dated 2021) come the findings set out here.

For one series, the target named is FTO (Homo sapiens, UniProt Q9C0B1). The series is described as follows: demethylation reaction catalyzed by FTO (enzymatic inhibition, HPLC-MS/MS of N6-mA and A). The format is biochemical.
The nature of series [1]: Rat liver microsome stability assay. The format is in vitro ADME. To be noted: liver microsomes, pH 7.4, rat liver microsome 1 mg/ml, test compound 2 μM, NADPH 1 mM, 37° C.
Series [2] concerns the target T1, COMT enzyme (Homo sapiens, UniProt P21964).
T1 construct: COMT (μM); other: at 200 nM; other: at 50 nM; The reaction system contains 1U COMT enzyme, test article, 4 μM Esculetin, 0.6 mM AdoMet, 50 mM K3PO4, and 10 mM MgCl2
T1 sequence (P21964 1-271): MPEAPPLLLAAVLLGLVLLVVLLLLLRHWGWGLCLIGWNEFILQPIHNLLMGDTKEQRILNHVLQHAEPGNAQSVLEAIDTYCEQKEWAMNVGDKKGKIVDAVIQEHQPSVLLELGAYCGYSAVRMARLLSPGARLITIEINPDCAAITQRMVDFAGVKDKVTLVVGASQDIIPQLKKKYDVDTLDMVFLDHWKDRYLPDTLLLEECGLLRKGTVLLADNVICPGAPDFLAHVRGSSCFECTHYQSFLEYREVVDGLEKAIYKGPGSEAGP
Put plainly: COMT inhibition assay (reaction kinetic model, esculetin fluorescence). The format is biochemical. To be noted: for inhibition at 0.05 µM: read-out: COMT inhibition at 50 nM; for inhibition at 0.2 µM: read-out: COMT inhibition at 200 nM.

The test system of series [3] is COMT enzyme. Described as above. The series is classed as biochemical. The settings on record: normalized COMT/FTO value: (COMTcompound/FTOcompound)/(COMTentacapone/FTOentacapone).
Setting [4] is: exemplary IC50 data of representative compounds, read-out: Enzymatic inhibition (IC50).
Where [5] appears, read: selectivity table, read-out: FTO.
The mark [6] stands for this setting: read-out: Rat Liver Microsome CLint (μL/min/mg protein).
Setting [7] is: read-out: Rat Liver Microsome T½.

Chain of FTO (Q9C0B1 whole entry): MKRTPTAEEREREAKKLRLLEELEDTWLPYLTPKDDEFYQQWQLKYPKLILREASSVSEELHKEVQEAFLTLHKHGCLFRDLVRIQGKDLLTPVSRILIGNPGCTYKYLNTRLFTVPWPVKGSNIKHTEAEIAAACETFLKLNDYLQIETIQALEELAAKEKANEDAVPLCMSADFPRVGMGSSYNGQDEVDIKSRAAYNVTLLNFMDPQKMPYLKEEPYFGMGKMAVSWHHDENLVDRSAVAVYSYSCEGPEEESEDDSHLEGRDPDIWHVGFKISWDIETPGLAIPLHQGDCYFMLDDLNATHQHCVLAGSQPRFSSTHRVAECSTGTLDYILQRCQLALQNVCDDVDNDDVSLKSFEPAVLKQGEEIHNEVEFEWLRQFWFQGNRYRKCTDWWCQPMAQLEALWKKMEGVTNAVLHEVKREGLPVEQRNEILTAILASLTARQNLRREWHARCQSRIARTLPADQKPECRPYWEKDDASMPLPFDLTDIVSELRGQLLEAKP

For `N#C/C(=C(/O)c1cc(O)c(O)c([N+](=O)[O-])c1)c1ccccn1` [Compound 351, 3-(3,4-dihydroxy-5-nitrophenyl)-3-oxo-2-(pyridin-2-yl)propanenitrile], the IC50 on FTO (setting [4]) was below 1 µM. The IC50 on FTO (setting [5]) was 0.75 µM. Also, in series [1] (setting [6]), the microsomal CLint at 1 h, 2 µM was 9 µL/min/mg. Also, the half-life at 1 h, 2 µM in series [1] (setting [7]) worked out at 1.28 h. At COMT enzyme [2], the inhibition at 0.05 µM turned out to be 33% and the inhibition at 0.2 µM amounted to 80%.

On to `N#C/C(C(=O)Nc1nccs1)=C(/O)c1cc(O)c(O)c([N+](=O)[O-])c1` [Compound 374, 2-cyano-3-(3,4-dihydroxy-5-nitrophenyl)-3-oxo-N-(thiazol-2-yl)propanamide], for which the values for the IC50 on FTO (setting [4]), on FTO (setting [5]) and against COMT enzyme [2] were below 1 µM, 0.5 µM and 0.065 µM, respectively. The microsomal CLint at 1 h, 2 µM in series [1] (setting [6]) is 0.6 µL/min/mg. Besides, the half-life at 1 h, 2 µM in series [1] (setting [7]) amounted to 19.2 h. The “Selectivity Index*” value in the series on COMT enzyme [3] is listed as 6.50.

As for `N#C/C(=C\c1cc(O)c(O)c([N+](=O)[O-])c1)c1cnccn1` [Compound 396], the IC50 at FTO (setting [4]) is below 1 µM; on FTO (setting [5]), 0.25 µM; at COMT enzyme [2] it was 0.108 µM. Besides, the microsomal CLint at 1 h, 2 µM in series [1] (setting [6]) worked out at 20.9 µL/min/mg. Moreover, in series [1] (setting [7]), the half-life at 1 h, 2 µM came out at 0.553 h. For the same compound, the “Selectivity Index*” value with COMT enzyme [3] was 21.60.

For `N#C/C(C(=O)N1CCC1)=C(/O)c1cc(O)c(O)c([N+](=O)[O-])c1` [Compound 701, (Z)-2-(azetidine-1-carbonyl)-3-(3,4-dihydroxy-5-nitrophenyl)-3-hydroxyacrylonitrile], the IC50 at FTO (setting [4]) was below 1 µM; at FTO (setting [5]), 0.75 µM; on COMT enzyme [2] it was 3.56 µM. Further, the “Selectivity Index*” value with COMT enzyme [3] turned out to be 237.33.

Consider `CCN(CC)C(=O)C(C#N)=C(NC)c1cc(O)c(O)c([N+](=O)[O-])c1` [Compound 347M, 2-cyano-3-(3,4-dihydroxy-5-nitrophenyl)-N,N-diethyl-3-(methylamino)acrylamide], for which the results for the IC50 at FTO (setting [4]), on FTO (setting [5]) and against COMT enzyme [2] were around 1 µM, 1 µM and 0.162 µM, respectively. Also, in series [1] (setting [6]), the microsomal CLint at 2 μM stood at 12.2 µL/min/mg. In addition, in series [1] (setting [7]), the half-life at 2 μM came to 0.947 h. Further, in the series on COMT enzyme [3], the “Selectivity Index*” value was 8.10.

For the compound `N#C/C(=C\c1cc(O)c(O)c([N+](=O)[O-])c1)c1ccncn1` [Compound 395, 3-(3,4-dihydroxy-5-nitrophenyl)-2-(pyrimidin-4-yl)acrylonitrile], the IC50 is below 1 µM at FTO (setting [4]) and 0.5 µM on FTO (setting [5]). The microsomal CLint at 1 h, 2 µM in series [1] (setting [6]) was determined as 12.6 µL/min/mg. Further, in series [1] (setting [7]), the half-life at 1 h, 2 µM was found to be 0.917 h. The inhibition at 0.05 µM on COMT enzyme [2] amounted to 36%. For the same compound, the inhibition at 0.2 µM at COMT enzyme [2] was found to be 74%.

Consider `N#C/C(=C\c1cc(O)c(O)c([N+](=O)[O-])c1)C(=O)Nc1nccs1` [Compound 331, (E)-2-cyano-3-(3,4-dihydroxy-5-nitrophenyl)-N-(thiazol-2-yl)acrylamide], for which the IC50 on FTO (setting [4]) was around 1 µM. For the same compound, the IC50 at FTO (setting [5]) came out at 1 µM. Further, the microsomal CLint at 1 h, 2 µM in series [1] (setting [6]) amounted to 7.4 µL/min/mg. For the same compound, in series [1] (setting [7]), the half-life at 1 h, 2 µM worked out at 1.56 h. For the same compound, at COMT enzyme [2], the inhibition at 0.05 µM was determined as 25% and the inhibition at 0.2 µM was found to be 54%.

For the compound `N#C/C(=C\c1cc(O)c(O)c([N+](=O)[O-])c1)C(=O)N1CCC1` [Compound 687], the IC50 on FTO (setting [4]) was below 1 µM; on FTO (setting [5]), 1 µM; against COMT enzyme [2], 0.033 µM. Further, the microsomal CLint at 1 h, 2 µM in series [1] (setting [6]) worked out at 284 µL/min/mg. In addition, the half-life at 1 h, 2 µM in series [1] (setting [7]) came out at 0.0407 h.

For the compound `N#C/C(C(=O)N1CCCCC1)=C(/N)c1cc(O)c(O)c([N+](=O)[O-])c1` [Compound 661N, 3-amino-3-(3,4-dihydroxy-5-nitrophenyl)-2-(piperidine-1-carbonyl)acrylonitrile], the figures for the IC50 on FTO (setting [4]) and at FTO (setting [5]) were below 1 µM and 0.75 µM, respectively. The microsomal CLint at 1 h, 2 µM in series [1] (setting [6]) was determined as 10.3 µL/min/mg. Further, the half-life at 1 h, 2 µM in series [1] (setting [7]) came out at 1.12 h. Moreover, the inhibition at 0.05 µM at COMT enzyme [2] worked out at 35%. The inhibition at 0.2 µM on COMT enzyme [2] amounted to 64%.

Take `N#C/C(C(=O)N1CCCCC1)=C(/O)c1cc(O)c(O)c([N+](=O)[O-])c1` [Compound 661, (Z)-3-(3,4-dihydroxy-5-nitrophenyl)-3-hydroxy-2-(piperidine-1-carbonyl)acrylonitrile]: the IC50 at FTO (setting [4]) is around 1 µM. The IC50 on FTO (setting [5]) came out at 1 µM. Moreover, the microsomal CLint at 1 h, 2 µM in series [1] (setting [6]) amounted to 2.2 µL/min/mg. Further, in series [1] (setting [7]), the half-life at 1 h, 2 µM was 5.25 h. At COMT enzyme [2], the inhibition at 0.05 µM is 12% and the inhibition at 0.2 µM was 26%.

In the case of `N#C/C(=C\c1cc(O)c(O)c([N+](=O)[O-])c1)c1cnc(C(=O)O)cn1` [Compound 655, (Z)-5-(1-cyano-2-(3,4-dihydroxy-5-nitrophenyl)vinyl)pyrazine-2-carboxylic Acid], the IC50 is below 1 µM at FTO (setting [4]), 0.3 µM at FTO (setting [5]) and 0.024 µM at COMT enzyme [2]. In addition, the microsomal CLint at 1 h, 2 µM in series [1] (setting [6]) stood at 1.6 µL/min/mg. The half-life at 1 h, 2 µM in series [1] (setting [7]) came out at 7.22 h. The “Selectivity Index*” value in the series on COMT enzyme [3] was determined as 4.00.

On to `N#C/C(=C\c1cc(O)c(O)c([N+](=O)[O-])c1)c1nccs1` [Compound 390], for which the IC50 at FTO (setting [4]) is around 1 µM. In addition, the IC50 at FTO (setting [5]) came out at 1 µM. For the same compound, the microsomal CLint at 1 h, 2 µM in series [1] (setting [6]) was 266 µL/min/mg. In addition, the half-life at 1 h, 2 µM in series [1] (setting [7]) was found to be 0.0435 h. For the same compound, on COMT enzyme [2], the inhibition at 0.05 µM worked out at 12% and the inhibition at 0.2 µM stood at 36%.

For `N#C/C(=C(/O)c1cc(O)c(O)c([N+](=O)[O-])c1)c1cnccn1` [Compound 523, 3-(3,4-dihydroxy-5-nitrophenyl)-3-hydroxy-2-(pyrazin-2-yl)acrylonitrile], the values for the IC50 on FTO (setting [4]), at FTO (setting [5]) and on COMT enzyme [2] were below 1 µM, 0.5 µM and 0.105 µM, respectively. The microsomal CLint at 1 h, 2 µM in series [1] (setting [6]) was found to be 2.9 µL/min/mg. Moreover, the half-life at 1 h, 2 µM in series [1] (setting [7]) amounted to 3.98 h. Also, the “Selectivity Index*” value in the series with COMT enzyme [3] worked out at 10.50.

Consider `N#C/C(=C(/O)c1cc(O)c(O)c([N+](=O)[O-])c1)c1cnc(C(=O)O)cn1` [Compound 697, (E)-5-(1-cyano-2-(3,4-dihydroxy-5-nitrophenyl)-2-hydroxyvinyl) pyrazine-2-carboxylic Acid], for which the IC50 on FTO (setting [4]) is below 1 µM. In addition, on FTO (setting [5]), the IC50 is 0.75 µM. The microsomal CLint at 1 h, 2 µM in series [1] (setting [6]) came to 1.1 µL/min/mg. In series [1] (setting [7]), the half-life at 1 h, 2 µM stood at 10.5 h. At COMT enzyme [2], the inhibition at 0.05 µM is -3% and the inhibition at 0.2 µM is 33%.

As to `N#CC(=Cc1cc(O)c(O)c([N+](=O)[O-])c1)c1ccccn1` (stereo in doubt) [Compound 315, (E)-3-(3,4-dihydroxy-5-nitrophenyl)-2-(pyridin-2-yl)acrylonitrile], the IC50 was around 1 µM at FTO (setting [4]) and 1 µM at FTO (setting [5]). Also, the microsomal CLint at 1 h, 2 µM in series [1] (setting [6]) is 310 µL/min/mg. Further, in series [1] (setting [7]), the half-life at 1 h, 2 µM amounted to 0.0373 h. At COMT enzyme [2], the inhibition at 0.05 µM amounted to 19%. In addition, the inhibition at 0.2 µM at COMT enzyme [2] came out at 70%.

`CCN(CC)C(=O)/C(C#N)=C(\N)c1cc(O)c(O)c([N+](=O)[O-])c1` [Compound 347N]: the IC50 on FTO (setting [4]) was below 1 µM; at FTO (setting [5]), 0.5 µM; at COMT enzyme [2] it was 0.214 µM. Also, the microsomal CLint at 1 h, 2 µM in series [1] (setting [6]) was found to be 4.9 µL/min/mg. In addition, the half-life at 1 h, 2 µM in series [1] (setting [7]) stood at 2.35 h. In the series with COMT enzyme [3], the “Selectivity Index*” value is on record as 21.40.

In the case of `N#C/C(=C(/O)c1cc(O)c(O)c([N+](=O)[O-])c1)c1nccs1` [Compound 503, 3-(3,4-dihydroxy-5-nitrophenyl)-3-oxo-2-(thiazol-2-yl)propanenitrile], the IC50 at FTO (setting [4]) is around 1 µM; on FTO (setting [5]), 1.5 µM. Further, in series [1] (setting [6]), the microsomal CLint at 1 h, 2 µM came to 0.5 µL/min/mg. Moreover, in series [1] (setting [7]), the half-life at 1 h, 2 µM is 23.1 h. Moreover, the inhibition at 0.05 µM on COMT enzyme [2] came to 9%. At COMT enzyme [2], the inhibition at 0.2 µM amounted to 24%.

In the case of `N#C/C(=C(/O)c1cc(O)c(O)c([N+](=O)[O-])c1)c1ccncn1` [Compound 525, (E)-3-(3,4-dihydroxy-5-nitrophenyl)-3-hydroxy-2-(pyrimidin-4-yl)acrylonitrile], at FTO (setting [4]), the IC50 is below 1 µM. Besides, the IC50 at FTO (setting [5]) is 0.5 µM. Besides, the microsomal CLint at 1 h, 2 µM in series [1] (setting [6]) is 10.9 µL/min/mg. Besides, the half-life at 1 h, 2 µM in series [1] (setting [7]) came out at 1.06 h. Moreover, on COMT enzyme [2], the inhibition at 0.05 µM amounted to 39% and the inhibition at 0.2 µM worked out at 74%.
